Laboratory results as given in a melting point compilation (Tetko et al.).
Starred links: 1 amine or outer side, 2 acyl side, 3 side chain; linkers in the order of their positions; H or OH if unused. Non-standard residues stand in square brackets, D forms with d. Residues, ends and D or L forms follow the SMILES beside them. Phe(2-Me) = Cc1ccccc1C[CH](N)C(=O)O; X2 = CC(F)(F)CC(N[*:1])C(=O)[*:2]; Suc = O=C(CCC(=O)[*:2])[*:1]; Tle = CC(C)(C)[CH](N)C(=O)O

For `CC(NC(=O)C(CC(C(=O)O)C(C)(C)C)NC(=O)C(CC(C(=O)O)C(C)(C)C)NC(=O)C(NC(=O)OCc1ccccc1)C(C)C)C(=O)NC(CC(C(=O)O)C(C)(C)C)C(=O)NC(CC(N)=O)C(=O)OC(C)(C)C` (stereo unspecified), the melting point was 217 to 219 °C.

With `O=C(O)C1=Cc2cc(Br)ccc2NC1C(F)(F)F` (stereo unspecified) the melting point was 185 to 186 °C.

In the case of `O=C(NCC(O)CO)c1c(I)c(C(=O)NCC(O)CO)c(I)c(N2C(=O)COCC2CO)c1I` (stereo unspecified), the melting point is reported as 227 to 230 °C.

`O=C(O)Cc1cccc(-c2cc(CCCCc3ccc(OC4OC(CO)C(O)C(O)C4O)c(-c4cccc(CC(=O)O)c4)c3)ccc2OC2OC(CO)C(O)C(O)C2O)c1` (stereo unspecified) gave a melting point of 195 to 197 °C.

Compound `NC(=O)OCCCN1CCN2c3ccccc3Cc3ccccc3C2C1` (stereo unspecified) has a melting point of 160 to 161 °C.

With `CCCCCCCCCCCCNC(=O)c1cccc(Sc2c(Nc3cc(C(=O)NCCCCCCCCCCCC)ccc3Cl)nn(-c3c(Cl)cc(Cl)cc3Cl)c2OC(=O)CCC)c1` the melting point was 111 to 113 °C.

`CC(C)CCCC(C)C1CCC2C3CC=C4CC(NCCCCC(=O)NCCC(=O)NCCC(=O)NCCCCC(C(=O)O)N(CC(=O)O)CC(=O)O)CCC4(C)C3CCC12C` (stereo unspecified) showed a melting point of 101 to 103 °C.

Compound `CCCCCCCCCCOc1cc(OCCCCCCCCCC)cc(N(CC(=O)OCOC(C)=O)CC(=O)OCOC(C)=O)c1` has a melting point of 37 to 39 °C.

`O=P1(Oc2c(Br)c(Br)c(Br)c(Br)c2Br)OCC2(CO1)COP(=O)(Oc1c(Br)c(Br)c(Br)c(Br)c1Br)OC2` (stereo unspecified) gave a melting point of 324 to 326 °C.

`CC(C)(C)OC(=O)NC(Cc1cc(I)c(Oc2cc(I)c(O)c(I)c2)c(I)c1)C(=O)O` (stereo unspecified) showed a melting point of 212 °C.

With `CC(C)(CCCCCCCCC(C)(C)NC(=O)C(C)(C)Cc1cc(C(C)(C)C)c(O)c(C(C)(C)C)c1)NC(=O)C(C)(C)Cc1cc(C(C)(C)C)c(O)c(C(C)(C)C)c1` the melting point was 126 °C.

Compound `CC(C)(C)c1cc(CCC(=O)OCCOc2ccc(C(C)(C)c3ccc(OCCOC(=O)CCc4cc(C(C)(C)C)c(O)c(C(C)(C)C)c4)cc3)cc2)cc(C(C)(C)C)c1O` has a melting point of 104 to 106 °C.

Work on `O=C(O)CCOC1COCCCC=CC2CC2(C(=O)NS(=O)(=O)C2CC2)NC(=O)C2(NC(=O)Nc3ccccc3)CC(OC(=O)N(CCC(=O)O)c3ccccc3)CN2C1=O` (stereo unspecified) yielded a melting point of 142 to 144 °C.

Work on `Cc1cc(CNC(=O)c2nc(N3CCOCC3)n(C)c(=O)c2O)ccc1F` yielded a melting point of 182 to 185 °C.

`[C-]#[N+]CCC(O)COc1ccc(C(C)(C)C)cc1` (stereo unspecified) gave a melting point of 69 to 72 °C.

Work on `CC(C)[C@H](NC(=O)N(C)Cc1ccccn1)C(=O)N[C@@H](Cc1ccccc1)[C@H](O)[C@@H](O)[C@H](Cc1ccccc1)NC(=O)[C@@H](NC(=O)N(C)Cc1csc(N)n1)C(C)C` yielded a melting point of 97 to 99 °C.

`CCCCCCCCCCCCCCCCCCN(CCCCCCCCCCCCCCCCCC)C(=O)c1cc(NS(=O)(=O)c2cnc(NN)c(Cl)c2)c2ccccc2c1O` gave a melting point of 75 to 77 °C.

`CCCCCCCCCCCCCCCCCCSCCOC1OC(COC(C)=O)C(OC2OC(COC(C)=O)C(OC3OC(COC(C)=O)C(OC(C)=O)C(OC(C)=O)C3OC(C)=O)C(OC(C)=O)C2OC(C)=O)C(OC(C)=O)C1N1C(=O)c2ccccc2C1=O` (stereo unspecified) gave a melting point of 150 to 152 °C.

Work on `O=CCCCCCCOc1ccc(OCc2ccccc2)cc1` yielded a melting point of 65 to 67 °C.

`Cc1cc(Oc2ccc3nc(COc4ccc(CC(Nc5ccccc5C(=O)c5ccccc5)C(=O)O)cc4)n(C)c3c2)cc(C)c1NC(=O)Nc1ccc(C(F)(F)F)cc1` (stereo unspecified) showed a melting point of 165 to 172 °C.

With `CCOC(=O)[C@@H](CCC(=O)N1c2ccccc2C[C@H]1C(=O)OCC)NC(=O)[C@H](CCCCNSc1ncccc1[N+](=O)[O-])NC(=O)OCc1ccc2c(c1)OCO2` the melting point was 130 to 135 °C.

Compound `Cc1ccccc1CC(NC(=O)C(CCC(=O)O)NC(=O)C(CC(=O)O)NC(=O)CCC(=O)O)C(=O)NC(C(=O)NC(CC(C)C)C(=O)NC(C=O)CC(C)(F)F)C(C)(C)C` (stereo unspecified) (Suc-DE[Phe(2-Me)][Tle]L[X2]-aldehyde; configuration not given here) has a melting point of 128 to 130 °C.

`CC1c2cc(C(C)(C)C)cc(C(C)(C)C)c2OP(OP2Oc3c(cc(C(C)(C)C)cc3C(C)(C)C)C(C)c3cc(C(C)(C)C)cc(C(C)(C)C)c3O2)Oc2c1cc(C(C)(C)C)cc2C(C)(C)C` (stereo unspecified) showed a melting point of 281 to 285 °C.

With `COc1ccc(C(c2ccccc2)C(C)(C(=O)C(C)(C(c2ccccc2)c2ccc(OC)c(OC)c2)N2C(=O)c3ccccc3C2=O)N2C(=O)c3ccccc3C2=O)cc1OC` (stereo unspecified) the melting point was 159 to 161 °C.

Work on `CN=S(=O)(c1nc(-c2ccc(F)cc2)cs1)C(C)c1ccc(C(F)(F)F)nc1` (stereo unspecified) yielded a melting point of 89 to 94 °C.

With `COc1cc(OC)c(C=CC(c2ccc(OC)c(NC(=O)C(C)O)c2)S(=O)(=O)C(C=Cc2c(OC)cc(OC)cc2OC)c2ccc(OC)c(NC(=O)C(C)O)c2)c(OC)c1` (stereo unspecified) the melting point was 174 to 176 °C.

Work on `CSC(=NS(=O)(=O)c1ccccc1)c1ccccc1` yielded a melting point of 150 to 155 °C.

`CCCCCCCCCCCCc1ccc(N=Nc2ccc(C(N)CCNC(=O)CCN(CCC(=O)NCCN(C)c3ccc(N=Nc4ccc(CCCCCCCCCCCC)cc4[N+](=O)[O-])cc3)c3ccc(N=Nc4ccc(CCCCCCCCCCCC)cc4[N+](=O)[O-])cc3)cc2)c([N+](=O)[O-])c1` (stereo unspecified) showed a melting point of 127 to 129 °C.

With `COc1cc(OC)c(/C=C/C(c2ccc(OC)c(NC(N)=O)c2)S(=O)(=O)C(/C=C/c2c(OC)cc(OC)cc2OC)c2ccc(OC)c(NC(N)=O)c2)c(OC)c1` (stereo unspecified) the melting point was 218 to 220 °C.

With `OP(=S)(C(F)(F)C(F)(F)C(F)(F)C(F)(F)C(F)(F)C(F)(F)C(F)(C(F)(F)F)C(F)(F)F)C(F)(F)C(F)(F)C(F)(F)C(F)(F)C(F)(F)C(F)(F)C(F)(C(F)(F)F)C(F)(F)F` the melting point was over 300 °C.

`CCCCCCCCCCCCN(c1nc(NCC(O)C2CC(C)(C)NC(C)(C)C2)nc(NCC(O)C2CC(C)(C)NC(C)(C)C2)n1)c1nc(NCC(O)C2CC(C)(C)NC(C)(C)C2)nc(NCC(O)C2CC(C)(C)NC(C)(C)C2)n1` (stereo unspecified) gave a melting point of 106 to 110 °C.

In the case of `Cc1ccc2cccc(OCc3c(Cl)ccc(S(=O)(=O)N4CCC[C@H]4C(=O)NC4CCN(C(=O)CCN(C=NC(=O)OC(C)(C)C)NC(=O)OC(C)(C)C)CC4)c3Cl)c2n1`, the melting point is reported as 112 °C.

Work on `CCCCCCC1(CCCCCC)c2cc(Br)ccc2-c2ccc(-c3ccc(-c4ccc5c(c4)C(CCCCCC)(CCCCCC)c4cc(Br)ccc4-5)c4snnc34)cc21` yielded a melting point of 188 to 190 °C.

Compound `COc1ccc(OC)c(CCNC(=O)N[C@H](Cc2cc(Br)c(O)c(Br)c2)C(=O)N[C@@H](CCCCN)C(=O)N2CCN(c3ccncc3)CC2)c1` has a melting point of 135 to 137 °C.

Compound `O=P(Oc1c(Br)cc(Br)cc1Br)(Oc1c(Br)cc(Br)cc1Br)Oc1c(Br)cc(Br)cc1Br` has a melting point of 223 to 226 °C.

Compound `O=C(O)CCC(Cc1cccc(Cl)c1)(C(=O)C=Cc1ccc(Cl)cc1)c1ccccc1` (stereo unspecified) has a melting point of 137 to 139 °C.

For `COc1cc(C2c3cc4c(cc3C(NC(=O)CNCCCCN(CCCNC(=O)OCc3ccccc3)C(=O)OCc3ccccc3)C3COC(=O)C23)OCO4)cc(OC)c1O` (stereo unspecified), the melting point was 199 °C.

Compound `CCOC(=O)C=Cc1cc2cc(OC)ccc2[nH]c1=O` has a melting point of 209 to 211 °C.

With `CC(c1cc(C(C)(C)C)cc(C(C)(C)C)c1O)c1cc(C(C)(C)C)cc(C(C)(C)C)c1OP1Oc2c(cc(C(C)(C)C)cc2C(C)(C)C)C(C)c2cc(C(C)(C)C)cc(C(C)(C)C)c2O1` (stereo unspecified) the melting point was 219 to 221 °C.

In the case of `C=CC(=O)OCCCCCCCCCCCOc1ccc(-c2nc(-c3ccccc3)nc(-c3ccc(OCCCCCCCCCCCOC(=O)C=C)cc3O)n2)c(O)c1`, the melting point is reported as 93.3 °C.

With `COc1ccc(C(=CC2(C=C(c3ccc(OC)cc3)c3ccc(N4CCCC4)cc3)OC(=O)c3c(Cl)c(Cl)c(Cl)c(Cl)c32)c2ccc(N3CCCC3)cc2)cc1` (stereo unspecified) the melting point was 159 to 161 °C.

In the case of `C=CCN(CC=C)c1nc(OC)nc(N(CCCCCCN(c2nc(OC)nc(N(CC=C)CC=C)n2)C2CC(C)(C)NC(C)(C)C2)C2CC(C)(C)NC(C)(C)C2)n1`, the melting point is reported as 113 to 115 °C.

With `CC(C)[C@H](NC(=O)N(C)Cc1csc(N)n1)C(=O)N[C@@H](Cc1ccccc1)C[C@H](O)[C@H](Cc1ccccc1)NC(=O)[C@@H](NC(=O)N(C)Cc1csc(N)n1)C(C)C` the melting point was 110 to 114 °C.

For `CCCCCCCCCCCCS(=O)(=O)c1c(S(=O)(=O)CCCCCCCCCCCC)c(S(=O)(=O)CCCCCCCCCCCC)c(S(=O)(=O)CCCCCCCCCCCC)c(S(=O)(=O)CCCCCCCCCCCC)c1S(=O)(=O)CCCCCCCCCCCC`, the melting point was 60 °C.

With `COc1cc2c3c(ccc4c5ccc6c7c(cc(OC)c(c1c34)c75)-c1ccccc1C6C#C[Si](C(C)C)(C(C)C)C(C)C)C(C#C[Si](C(C)C)(C(C)C)C(C)C)c1ccccc1-2` (stereo unspecified) the melting point was 295 to 298 °C.

In the case of `CC(C)[C@H](NC(=O)N(C)Cc1cscn1)C(=O)N[C@@H](Cc1ccccc1)[C@H](O)[C@@H](O)[C@H](Cc1ccccc1)NC(=O)[C@@H](NC(=O)N(C)Cc1csc(N)n1)C(C)C`, the melting point is reported as 118 to 120 °C.

With `CCCCN(c1nc(NC(C)(C)CC(C)(C)C)nc(N(CCCC)C2CC(C)(C)N(OC3CCCCC3)C(C)(C)C2)n1)C1CC(C)(C)N(OC2CCCCC2)C(C)(C)C1` the melting point was 85 to 103 °C.

`COc1c(Oc2nc3ccccc3o2)c(C)c(C)n(Cc2ccccc2)c1=O` gave a melting point of 197 to 198 °C.

Compound `CC(CCC(=O)O)C1CCC2C3C(O)CC4CC(NC(=O)CNC(=O)CN(CCN(CC(=O)O)CC(=O)O)CCN(CC(=O)O)CC(=O)O)CCC4(C)C3CC(O)C12C` (stereo unspecified) has a melting point of 120 to 125 °C.

`COc1cc(OC)c(/C=C/C(c2ccc(OC)c(NC(C)=O)c2)S(=O)(=O)C(/C=C/c2c(OC)cc(OC)cc2OC)c2ccc(OC)c(NC(C)=O)c2)c(OC)c1` (stereo unspecified) showed a melting point of 220 to 223 °C.

`CCCCCCCCCCCCCCCCCCOc1ccc(OCCCOc2ccc(OCc3ccccc3)cc2)c(C(=O)N(CC(=O)OCC)CC(=O)OCC)c1` gave a melting point of 54 to 55 °C.

Compound `CCC(=O)OC1(C(=O)C(O)OC(=O)C(NC(=O)C2CCCN2C(=O)C(C)NC(=O)C(C)NC(=O)N(c2ccccc2)c2ccccc2)C(C)C)CCC2C3CC(C)C4=CC(=O)C=CC4(C)C3C(O)CC21C` (stereo unspecified) has a melting point of 150 to 152 °C.

Compound `CCOc1cc(C(=O)N2CCC(CCN3CCC(C(=O)c4nc5ccccc5n4Cc4ccc(F)cc4)CC3)(c3ccc(OC)c(OC)c3)C2)cc(OCC)c1OCC` (stereo unspecified) has a melting point of 139 to 141 °C.

For `O=[N+]([O-])c1ccc2cn[nH]c(=S)c2c1`, the melting point was 233 to 234 °C.

With `O=S(=O)(Cl)Cc1cccc(C(F)(F)F)c1` the melting point was 60 °C.

Compound `CN(C(=O)C(CC(Cc1ccccc1)C(N)=O)NC(=O)OCc1ccccc1)c1ccc(OCC(=O)NC(CC(N)=O)C(=O)NC(Cc2ccccc2)C(O)C(=O)N2CCCC2C(=O)NC(C)(C)C)cc1` (stereo unspecified) has a melting point of 85 to 91 °C.
